Assay results taken from patent publication US20260274833A1 (NiKang Therapeutics, Inc., priority 2022, published 2026).
pIC50: −log10 of the molar value.

Each compound was assayed against T1, CDK2 (Homo sapiens, UniProt P24941) (assay: Phospho-RB measurement in OVCAR3 cells (HTRF phospho-RB cellular kit)). Details: inhibition of RB phosphorylation at S807/811 (HTRF, TR-FRET ratio 665/620), 24 h compound treatment, 0.3 to 10,000 nM.
T1 construct: endogenous in cells; host or cells: OVCAR3 cells
Assay type: cell-based
Procedure, shortened: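 IC50 came from a four-parameter logistic fit of the DMSO-normalized TR-FRET ratio (665/620 nm). That ratio reflects RB phosphorylation at S807/811, read with an HTRF antibody pair 4 h after adding lysate at room temperature.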

Row | Compound | pIC50
1 | CC(C)(C)c1nc(-c2cccc(NS(=O)(=O)N3Cc4cccc(OCCN)c4C3)c2F)c(-c2ccnc(NC3CCN(S(C)(=O)=O)CC3)n2)s1 [Example 244, 4-(2-aminoethoxy)-N-(3-(2-(tert-butyl)-5-(2-((1-(methylsulfonyl)piperidin-4-yl)amino)-pyrimidin-4-yl)thiazol-4-yl)-2-fluorophenyl)-isoindoline-2-sulfonamide] | 5.84
2 | Cn1ncc2c1CN(S(=O)(=O)Nc1cccc(-c3nc(C(C)(C)C)sc3-c3ccnc(Nc4ccc(N5CCNCC5)cc4)n3)c1F)C2 [Example 251] | 5.81
3 | Cn1cc2c(n1)CN(S(=O)(=O)Nc1cccc(-c3nc(C(C)(C)C)sc3-c3ccnc(Nc4ccc(N5CCNCC5)cc4)n3)c1F)C2 [Example 252, N-(3-(2-(tert-butyl)-5-(2-((4-(piperazin-1-yl)-phenyl)amino)pyrimidin-4-yl)-thiazol-4-yl)-2-fluorophenyl)-2-methyl-2,6-dihydropyrrolo-[3,4-c]pyrazole-5(4H)-sulfonamide] | 5.48
4 | CC(C)(C)c1nc(-c2cccc(NS(=O)(=O)N3Cc4ccccc4C34CC4)c2F)c(-c2ccnc(NC3CCN(S(C)(=O)=O)CC3)n2)s1 [Example 256, N-(3-(2-(tert-butyl)-5-(2-((1-(methylsulfonyl)-piperidin-4-yl)amino)-pyrimidin-4-yl)thiazol-4-yl)-2-fluoro-phenyl)spiro [cyclopropane-1,1′-isoindoline]-2′-sulfonamide] | 5.51
5 | CC(C)(C)c1nc(-c2cccc(NS(=O)(=O)N3CCc4ccc(C(C)(C)O)cc43)c2F)c(-c2ccnc(NC3CC4(C3)CS(=O)(=O)C4)n2)s1 [Example 257, N-(3-(2-(tert-butyl)-5-(2-((2,2-dioxido-2-thiaspiro[3.3]heptan-6-yl)amino)-pyrimidin-4-yl)thiazol-4-yl)-2-fluoro-phenyl)-6-(2-hydroxypropan-2-yl)indoline-1-sulfonamide] | 5.53
6 | CN(c1cccc2c1NCC2)S(=O)(=O)Nc1cccc(-c2nc(C(C)(C)C)sc2-c2ccnc(NC3CCN(S(C)(=O)=O)CC3)n2)c1F [Example 259, N-(3-(2-(tert-butyl)-5-(2-((1-(methylsulfonyl)-piperidin-4-yl)amino)-pyrimidin-4-yl)thiazol-4-yl)-2-fluoro-phenyl)-(N-methyl-N-indolin-7-yl)-amine-sulfonamide] | 5.69
7 | O=S1(=O)CC2(CC(Nc3nccc(-c4sc(C56CC(C5)C6)nc4-c4cccc(NS(=O)(=O)N5CCc6ccncc65)c4F)n3)C2)C1 [Example 264, N-(3-(2-(bicyclo [1.1.1]pentan-1-yl)-5-(2-((2,2-dioxido-2-thiaspiro[3.3]heptan-6-yl)amino)-pyrimidin-4-yl)thiazol-4-yl)-2-fluorophenyl)-2,3-dihydro-1H-pyrrolo[2,3-c]pyridine-1-sulfonamide] | 5.74
8 | O=S1(=O)CC2(CC(Nc3nccc(-c4sc(C56CC(C5)C6)nc4-c4cccc(NS(=O)(=O)N5C6CCC5CC6)c4F)n3)C2)C1 [Example 265, N-(3-(2-(bicyclo[1.1. 1]pentan-1-yl)-5-(2-((2,2-dioxido-2-thiaspiro[3.3]heptan-6-yl)amino)-pyrimidin-4-yl)thiazol-4-yl)-2-fluorophenyl)-7-azabicyclo[2.2.1]-heptane-7-sulfonamide] | 5.28
9 | O=S1(=O)CC2(CC(Nc3nccc(-c4sc(C56CC(C5)C6)nc4-c4cccc(NS(=O)(=O)N5C6CCC5CC(F)(F)C6)c4F)n3)C2)C1 [Example 266, N-(3-(2-(bicyclo [1.1.1]pentan-1-yl)-5-(2-((2,2-dioxido-2-thiaspiro[3.3]heptan-6-yl)amino)-pyrimidin-4-yl)thiazol-4-yl)-2-fluorophenyl)-3,3-difluoro-8-azabicyclo-[3.2.1]octane-8-sulfonamide] | 5.07
10 | O=S1(=O)CC2(CC(Nc3nccc(-c4sc(C56CC(C5)C6)nc4-c4cccc(NS(=O)(=O)N5CC6CCC5CC6)c4F)n3)C2)C1 [Example 267, (1s,4s)-N-(3-(2-(bicyclo[1.1.1]pentan-]-yl)-5-(2-((2,2-dioxido-2-thiaspiro-[3.3]heptan-6-yl)amino)pyrimidin-4-yl)thiazol-4-yl)-2-fluorophenyl)-2-azabicyclo[2.2.2] octane-2-sulfonamide] | 5.03

Now those with a higher pIC50, led by results:

Row | pIC50 | Compound
11 | 6.47 | CC(C)(C)c1nc(-c2cccc(NS(=O)(=O)N3CCc4c(CN5CCOCC5)cccc43)c2F)c(-c2ccnc(NC3CCN(S(C)(=O)=O)CC3)n2)s1 [Example 245, N-(3-(2-(tert-butyl)-5-(2-((1-(methylsulfonyl)piperidin-4-yl)amino)-pyrimidin-4-yl)thiazol-4-yl)-2-fluorophenyl)-4-(morpholinomethyl)-indoline-1-sulfonamide]
12 | 6.48 | CC(C)(C)c1nc(-c2cccc(NS(=O)(=O)N3Cc4ccc(CC#N)cc4C3)c2F)c(-c2ccnc(NC3CC4(C3)CS(=O)(=O)C4)n2)s1 [Example 246, N-(3-(2-(tert-butyl)-5-(2-((2,2-dioxido-2-thiaspiro[3.3]heptan-6-yl)amino)-pyrimidin-4-yl)thiazol-4-yl)-2-fluoro-phenyl)-5-(cyanomethyl)-isoindoline-2-sulfonamide]
13 | 6.93 | CC(C)(C)c1nc(-c2cccc(NS(=O)(=O)N3Cc4cccc(OCC#N)c4C3)c2F)c(-c2ccnc(NC3CCN(S(C)(=O)=O)CC3)n2)s1 [Example 247, N-(3-(2-(tert-butyl)-5-(2-((1-(methylsulfonyl)-piperidin-4-yl)amino)-pyrimidin-4-yl)thiazol-4-yl)-2-fluoro-phenyl)-4-(cyanomethoxy)-isoindoline-2-sulfonamide]
14 | 6.39 | CN(C)Cc1ccc(Nc2nccc(-c3sc(C(C)(C)C)nc3-c3cccc(NS(=O)(=O)N4CCc5ccc(C#N)cc54)c3F)n2)cc1 [Example 248, N-(3-(2-(tert-butyl)~5-(2-((4-((dimethylamino)-methyl)phenyl)-amino)pyrimidin-4-yl)thiazol-4-yl)-2-fluorophenyl)-6-cyanoindoline-1-sulfonamide]
15 | 6.16 | CN1CCN(c2ccc(Nc3nccc(-c4sc(C(C)(C)C)nc4-c4cccc(NS(=O)(=O)N5CCc6ccc(C#N)cc65)c4F)n3)cc2)CC1 [Example 249, N-(3-(2-(tert-butyl)-5-(2-((4-(4-methyl-piperazin-1-yl)phenyl)amino)pyrimidin-4-yl)-thiazol-4-yl)-2-fluoro-phenyl)-6-cyanoindoline-1-sulfonamide]
16 | 6.24 | CC(C)(C)c1nc(-c2cccc(NS(=O)(=O)N3CCc4ccc(C#N)cc43)c2F)c(-c2ccnc(Nc3ccc(N4CCN(C5COC5)CC4)cc3)n2)s1 [Example 250, N-(3-(2-(tert-butyl)-5-(2-((4-(4-(oxetan-3-yl)-piperazin-1-yl)phenyl)amino)-pyrimidin-4-yl)thiazol-4-yl)-2-fluoro-phenyl)-6-cyanoindoline-1-sulfonamide]
17 | 6.50 | CC(C)(C)c1nc(-c2cccc(NS(=O)(=O)N3Cc4ccc(C(F)F)cc4C3)c2F)c(-c2ccnc(NC3CCN(S(C)(=O)=O)CC3)n2)s1 [Example 254, N-(3-(2-(tert-butyl)-5-(2-((1+ (methylsulfonyl)-piperidin-4-yl)amino)-pyrimidin-4-yl)thiazol-4-yl)-2-fluoro-phenyl)-5-(difluoromethyl)-isoindoline-2-sulfonamide]
18 | 6.17 | CC(C)(C)c1nc(-c2cccc(NS(=O)(=O)N3Cc4ccc(C(F)F)cc4C3)c2F)c(-c2ccnc(NC3CC4(C3)CS(=O)(=O)C4)n2)s1 [Example 255, N-(3-(2-(tert-butyl)-5-(2-((2,2-dioxido-2-thiaspiro[3.3]heptan-6-yl)amino)-pyrimidin-4-yl)thiazol-4-yl)-2-fluoro-phenyl)-5-(difluoromethyl) isoindoline-2-sulfonamide]
19 | 6.36 | CNc1cccc2c1N(S(=O)(=O)Nc1cccc(-c3nc(C(C)(C)C)sc3-c3ccnc(NC4CCN(S(C)(=O)=O)CC4)n3)c1F)CC2 [Example 258, N-(3-(2-(tert-butyl)-5-(2-((1-(methylsulfonyl)-piperidin-4-yl)amino)-pyrimidin-4-yl)thiazol-4-yl)-2-fluoro-phenyl)-7-(methylamino) indoline-1-sulfonamide]
20 | 6.18 | CC(C)(C)c1nc(-c2cccc(NS(=O)(=O)N3CCc4ccc(C(C)(C)C#N)cc43)c2F)c(-c2ccnc(NC3CC4(C3)CS(=O)(=O)C4)n2)s1 [Example 260, N-(3-(2-(tert-butyl)-S-(2-((2,2-dioxido-2-thiaspiro[3.3]heptan-6-yl)amino)-pyrimidin-4-yl)thiazol-4-yl)-2-fluoro-phenyl)-6-(2-cyanopropan-2-yl)indoline-1-sulfonamide]
21 | 6.16 | CC(C)(C)c1nc(-c2cccc(NS(=O)(=O)N3CCc4ccc(S(C)(=O)=O)cc43)c2F)c(-c2ccnc(NC3CC4(C3)CS(=O)(=O)C4)n2)s1 [Example 261, N-(3-(2-(tert-butyl)-5-(2-((2,2-dioxido-2-thiaspiro[3.3]heptan-6-yl)amino)-pyrimidin-4-yl)thiazol-4-yl)-2-fluoro-phenyl)-6-(methylsulfonyl)-indoline-1-sulfonamide]
22 | 7.51 | CC(C)(C)c1nc(-c2cccc(NS(=O)(=O)N3Cc4cccc(C(F)F)c4C3)c2F)c(-c2ccnc(NC3CC4(C3)CS(=O)(=O)C4)n2)s1 [Example 262, N~(3-(2-(tert-butyl)-5-(2-((2,2-dioxido-2-thiaspiro[3.3]heptan-6-yl)amino)-pyrimidin-4-yl)thiazol-4-yl)-2-fluoro-phenyl)-4-(difluoromethyl)-isoindoline-2-sulfonamide]
23 | 6.93 | N#Cc1ccc2c(c1)N(S(=O)(=O)Nc1cccc(-c3nc(C45CC(C4)C5)sc3-c3ccnc(NC4CCN(S(=O)(=O)N5CCNCC5)CC4)n3)c1F)CC2 [Example 263, N-(3-(2-(bicyclo [1.1.1]pentan-1-yl)-5-(2-((1-(piperazin-1-ylsulfonyl)piperidin-4-yl)amino)-pyrimidin-4-yl)thiazol-4-yl)-2-fluorophenyl)-6-cyanoindoline-1-sulfonamide]
